In patent US6358995B1, “Carboxylic acid derivatives having fused rings” (Eisai Co., Ltd., priority 1996, dated 2002):

Each compound was assayed against T1, RAR-β (Homo sapiens, UniProt P10826) (assay: Transcription accelerating activity through RARs (PLAP reporter in COS-1 cells)). Conditions: relative to ED30 of all-trans retinoic acid = 1, ED30 = concentration giving 30% of activity induced by 1 μM all-trans retinoic acid.
T1 construct: expressed in transfected cells; host or cells: COS-1 (African green monkey kidney cells), transient lipofection
T1 sequence (P10826 1-455): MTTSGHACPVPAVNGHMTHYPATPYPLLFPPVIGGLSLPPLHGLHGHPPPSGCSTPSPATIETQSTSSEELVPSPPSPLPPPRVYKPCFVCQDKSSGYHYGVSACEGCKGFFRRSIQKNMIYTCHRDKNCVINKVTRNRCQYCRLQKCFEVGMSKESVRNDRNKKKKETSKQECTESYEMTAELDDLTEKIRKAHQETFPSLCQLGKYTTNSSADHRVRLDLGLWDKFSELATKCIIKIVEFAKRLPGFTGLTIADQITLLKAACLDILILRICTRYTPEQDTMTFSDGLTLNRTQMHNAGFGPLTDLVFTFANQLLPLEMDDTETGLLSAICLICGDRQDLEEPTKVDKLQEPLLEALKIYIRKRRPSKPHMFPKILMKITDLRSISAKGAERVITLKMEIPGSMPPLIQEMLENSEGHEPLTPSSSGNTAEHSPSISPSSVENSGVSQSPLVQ
Assay type: cell-based
Excerpt: (§1) Measurement of the Activities of Accelerating Trans-cription Through RARs
(§2) Human RAR Expression Vectors and secretory alkaline phosphatase (PLAP) gene vectors (PLAP vectors) containing in a state integrated into the upstream a competent sequence whose expression is […] through binding with RAR depending on a ligand were temporarily transferred into COS-1 (African green monkey kidney cells), and the PLAP which had been produced depending on a ligand and secreted into a culture medium was analyzed by the chemiluminescence method to determine the transcription-accelerating activity of each compound. Further, the selectivity of each compound among RARs was determined by comparing the transcription accelerating activities of the compound for the receptors with each other.
(§3) On a 60-mm culture dish were scattered 2.5×10^4 COS-1 cells. Four days after, human RAR α, β and γ expression vectors and PLAP vectors were transferred into the cells each in an amount of 4 μg by the lipofection method. Another day after, the resulting cells were recovered, and put on a 96-well culture plate in an amount of 2×10^4 per unit well. Four hours after, the cells were put on a medium containing charcoal-treated fetal bovine serum, followed by the addition of a dilution of all-trans retinoic acid or a test compound. After the lapse of 36 hours, the supernatant was recovered and the resulting samples were treated at 65° C. for 10 minutes to eliminate the non-specific activity. 15 μl of each sample was mixed with 60 μl of a 28 mM sodium carbonate buffer(pH10), followed by the addition of 75 μl of Smilight (trade name, a product of Sumitomo Metal Industries, Ltd., substrate for chemiluminescence). The resulting mixture was reacted at 37° C. for 30 minutes and the intensity of luminescence was determined. The compounds which will be described below induced the transcription activities of RARs dependently on the concentration.

SMILES | Transcription accelerating activity Relative ED30 RAR-β
O=C(O)c1ccc(-c2ccc(-c3cc4c(F)ccc(Cl)c4o3)[nH]2)cc1 [Example 42, 4-{2-[5-(4-Fluoro-7-chlorobenzofuran-2-yl)pyrrolyl]}benzoic acid] | 91
Cc1c(-c2ccc(-c3ccc(C(=O)O)cc3)[nH]2)oc2c(Cl)ccc(Cl)c12 [Example 46, 4-{2-[5-(4,7-Dichloro-3-methylbenzofuran-2-yl)pyrrolyl]}benzoic acid] | 14
Cc1ccc(C)c2c(C)c(-c3ccc(-c4ccc(C(=O)O)cc4)[nH]3)oc12 [Example 47, 4-{2-[5-(3,4,7-Trimethylbenzofuran-2-yl)pyrrolyl]}benzoic acid] | 2.4
Cc1cc(C)c2oc(-c3ccc(-c4ccc(C(=O)O)cc4)[nH]3)cc2c1 [Example 50, 4-{2-[5-(5,7-Dimethylbenzofuran-2-yl)pyrrolyl]}benzoic acid] | 280
Cc1ccc(Cl)c2oc(-c3ccc(-c4ccc(C(=O)O)cc4)[nH]3)cc12 [Example 53, 4-{2-[5-(7-Chloro-4-methylbenzofuran-2-yl)pyrrolyl]}benzoic acid] | 26
CCc1cccc2cc(-c3ccc(-c4ccc(C(=O)O)cc4)[nH]3)oc12 [Example 55, 4-{2-[5-(7-Ethylbenzofurn-2-yl)pyrrolyl]}benzoic acid] | 31
O=C(O)c1ccc(-c2ccc(-c3cc4c(Cl)cccc4o3)[nH]2)cc1 [Example 60, 4-{2-[5-(4-Chlorobenzofuran-2-yl)pyrrolyl]}benzoic acid] | 110
Cc1ccc(Cl)c2sc(-c3ccc(-c4ccc(C(=O)O)cc4)[nH]3)cc12 [Example 75, 4-{2-[5-(7-Chloro-4-methylbenzothiophen-2-yl)pyrrolyl]}benzoic acid] | 150
Cc1ccc(C)c2sc(-c3ccc(-c4ccc(C(=O)O)cc4)[nH]3)cc12 [Example 77, 4-{2-[5-(4,7-Dimethylbenzothiophen-2-yl)pyrrolyl]}benzoic acid] | 65
CCc1ccc(OC)c2ccc(-c3ccc(-c4ccc(C(=O)O)cc4)[nH]3)cc12 [Example 90, 4-{2-[5-(5-Methoxy-8-ethylnaphthalen-2-yl)pyrrolyl]}benzoic acid] | 450
Cc1ccc(F)c2cc(-c3ccc(-c4ccc(C(=O)O)cc4)[nH]3)oc12 [Example 110, 4-{2-[5-(4-Fluoro-7-methylbenzofuran-2-yl)pyrrolyl]}benzoic acid] | 210
Cc1cc(C)c2cc(-c3ccc(-c4ccc(C(=O)O)cc4)[nH]3)oc2c1C [Example 113, 4-{2-[5-(4,6,7-Trimethylbenzofuran-2-yl)pyrrolyl]}benzoic acid] | 24

What follows are compounds tested against T2, RAR-α (Homo sapiens, UniProt P10276) in the same assay as above. Conditions: relative to ED30 of all-trans retinoic acid = 1, ED30 = concentration giving 30% of activity induced by 1 μM all-trans retinoic acid.
T2 construct: expressed in transfected cells; host or cells: COS-1 (African green monkey kidney cells), transient lipofection
T2 sequence (P10276 1-462): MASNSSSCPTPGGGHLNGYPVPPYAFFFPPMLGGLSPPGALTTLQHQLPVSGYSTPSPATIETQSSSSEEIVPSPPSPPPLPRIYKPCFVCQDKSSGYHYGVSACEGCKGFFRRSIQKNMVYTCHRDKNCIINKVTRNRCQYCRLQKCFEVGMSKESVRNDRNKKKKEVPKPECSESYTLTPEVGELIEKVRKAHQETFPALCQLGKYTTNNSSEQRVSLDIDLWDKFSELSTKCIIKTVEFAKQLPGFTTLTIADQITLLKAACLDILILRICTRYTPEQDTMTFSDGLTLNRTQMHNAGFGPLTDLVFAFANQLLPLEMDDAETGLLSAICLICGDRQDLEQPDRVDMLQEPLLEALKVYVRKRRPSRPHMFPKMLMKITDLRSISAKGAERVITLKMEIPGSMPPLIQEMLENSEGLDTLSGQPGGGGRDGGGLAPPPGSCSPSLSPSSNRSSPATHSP
Assay type: cell-based
Excerpt: as §1, §2, §3

SMILES | Transcription accelerating activity Relative ED30 RAR-α
O=C(O)c1ccc(-c2ccc(-c3cc4c(F)ccc(Cl)c4o3)[nH]2)cc1 [Example 42, 4-{2-[5-(4-Fluoro-7-chlorobenzofuran-2-yl)pyrrolyl]}benzoic acid] | 0.33
Cc1c(-c2ccc(-c3ccc(C(=O)O)cc3)[nH]2)oc2c(Cl)ccc(Cl)c12 [Example 46, 4-{2-[5-(4,7-Dichloro-3-methylbenzofuran-2-yl)pyrrolyl]}benzoic acid] | 0.63
Cc1ccc(C)c2c(C)c(-c3ccc(-c4ccc(C(=O)O)cc4)[nH]3)oc12 [Example 47, 4-{2-[5-(3,4,7-Trimethylbenzofuran-2-yl)pyrrolyl]}benzoic acid] | 0.80
Cc1cc(C)c2oc(-c3ccc(-c4ccc(C(=O)O)cc4)[nH]3)cc2c1 [Example 50, 4-{2-[5-(5,7-Dimethylbenzofuran-2-yl)pyrrolyl]}benzoic acid] | 0.38
Cc1ccc(Cl)c2oc(-c3ccc(-c4ccc(C(=O)O)cc4)[nH]3)cc12 [Example 53, 4-{2-[5-(7-Chloro-4-methylbenzofuran-2-yl)pyrrolyl]}benzoic acid] | 0.17
CCc1cccc2cc(-c3ccc(-c4ccc(C(=O)O)cc4)[nH]3)oc12 [Example 55, 4-{2-[5-(7-Ethylbenzofurn-2-yl)pyrrolyl]}benzoic acid] | 0.20
O=C(O)c1ccc(-c2ccc(-c3cc4c(Cl)cccc4o3)[nH]2)cc1 [Example 60, 4-{2-[5-(4-Chlorobenzofuran-2-yl)pyrrolyl]}benzoic acid] | 0.72
Cc1ccc(Cl)c2sc(-c3ccc(-c4ccc(C(=O)O)cc4)[nH]3)cc12 [Example 75, 4-{2-[5-(7-Chloro-4-methylbenzothiophen-2-yl)pyrrolyl]}benzoic acid] | 0.80
Cc1ccc(C)c2sc(-c3ccc(-c4ccc(C(=O)O)cc4)[nH]3)cc12 [Example 77, 4-{2-[5-(4,7-Dimethylbenzothiophen-2-yl)pyrrolyl]}benzoic acid] | 0.35
CCc1ccc(OC)c2ccc(-c3ccc(-c4ccc(C(=O)O)cc4)[nH]3)cc12 [Example 90, 4-{2-[5-(5-Methoxy-8-ethylnaphthalen-2-yl)pyrrolyl]}benzoic acid] | 3.1
Cc1ccc(F)c2cc(-c3ccc(-c4ccc(C(=O)O)cc4)[nH]3)oc12 [Example 110, 4-{2-[5-(4-Fluoro-7-methylbenzofuran-2-yl)pyrrolyl]}benzoic acid] | 0.47
Cc1cc(C)c2cc(-c3ccc(-c4ccc(C(=O)O)cc4)[nH]3)oc2c1C [Example 113, 4-{2-[5-(4,6,7-Trimethylbenzofuran-2-yl)pyrrolyl]}benzoic acid] | 0.80

The compounds below were run against T3, RAR-γ (Homo sapiens, UniProt P13631) in the same assay as above. Conditions: relative to ED30 of all-trans retinoic acid = 1, ED30 = concentration giving 30% of activity induced by 1 μM all-trans retinoic acid.
T3 construct: expressed in transfected cells; host or cells: COS-1 (African green monkey kidney cells), transient lipofection
T3 sequence (P13631 1-454): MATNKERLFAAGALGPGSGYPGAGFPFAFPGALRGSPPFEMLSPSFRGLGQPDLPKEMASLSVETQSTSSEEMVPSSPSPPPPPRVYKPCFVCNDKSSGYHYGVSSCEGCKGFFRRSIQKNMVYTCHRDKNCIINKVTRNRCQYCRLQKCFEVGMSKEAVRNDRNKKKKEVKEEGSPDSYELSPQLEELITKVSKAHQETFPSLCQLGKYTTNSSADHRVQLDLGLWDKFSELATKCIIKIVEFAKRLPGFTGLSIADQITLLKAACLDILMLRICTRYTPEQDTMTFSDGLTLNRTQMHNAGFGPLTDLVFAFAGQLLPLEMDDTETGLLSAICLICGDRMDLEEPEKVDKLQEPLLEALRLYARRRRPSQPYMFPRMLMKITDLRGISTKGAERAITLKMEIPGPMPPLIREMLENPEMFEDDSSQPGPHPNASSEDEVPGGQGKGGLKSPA
Assay type: cell-based
Excerpt: as §1, §2, §3

SMILES | Transcription accelerating activity Relative ED30 RAR-γ
O=C(O)c1ccc(-c2ccc(-c3cc4c(F)ccc(Cl)c4o3)[nH]2)cc1 [Example 42, 4-{2-[5-(4-Fluoro-7-chlorobenzofuran-2-yl)pyrrolyl]}benzoic acid] | 790
Cc1c(-c2ccc(-c3ccc(C(=O)O)cc3)[nH]2)oc2c(Cl)ccc(Cl)c12 [Example 46, 4-{2-[5-(4,7-Dichloro-3-methylbenzofuran-2-yl)pyrrolyl]}benzoic acid] | 240
Cc1ccc(C)c2c(C)c(-c3ccc(-c4ccc(C(=O)O)cc4)[nH]3)oc12 [Example 47, 4-{2-[5-(3,4,7-Trimethylbenzofuran-2-yl)pyrrolyl]}benzoic acid] | 41
Cc1cc(C)c2oc(-c3ccc(-c4ccc(C(=O)O)cc4)[nH]3)cc2c1 [Example 50, 4-{2-[5-(5,7-Dimethylbenzofuran-2-yl)pyrrolyl]}benzoic acid] | 710
Cc1ccc(Cl)c2oc(-c3ccc(-c4ccc(C(=O)O)cc4)[nH]3)cc12 [Example 53, 4-{2-[5-(7-Chloro-4-methylbenzofuran-2-yl)pyrrolyl]}benzoic acid] | 430
CCc1cccc2cc(-c3ccc(-c4ccc(C(=O)O)cc4)[nH]3)oc12 [Example 55, 4-{2-[5-(7-Ethylbenzofurn-2-yl)pyrrolyl]}benzoic acid] | 120
O=C(O)c1ccc(-c2ccc(-c3cc4c(Cl)cccc4o3)[nH]2)cc1 [Example 60, 4-{2-[5-(4-Chlorobenzofuran-2-yl)pyrrolyl]}benzoic acid] | 750
Cc1ccc(Cl)c2sc(-c3ccc(-c4ccc(C(=O)O)cc4)[nH]3)cc12 [Example 75, 4-{2-[5-(7-Chloro-4-methylbenzothiophen-2-yl)pyrrolyl]}benzoic acid] | 2000
Cc1ccc(C)c2sc(-c3ccc(-c4ccc(C(=O)O)cc4)[nH]3)cc12 [Example 77, 4-{2-[5-(4,7-Dimethylbenzothiophen-2-yl)pyrrolyl]}benzoic acid] | 130
CCc1ccc(OC)c2ccc(-c3ccc(-c4ccc(C(=O)O)cc4)[nH]3)cc12 [Example 90, 4-{2-[5-(5-Methoxy-8-ethylnaphthalen-2-yl)pyrrolyl]}benzoic acid] | 1400
Cc1ccc(F)c2cc(-c3ccc(-c4ccc(C(=O)O)cc4)[nH]3)oc12 [Example 110, 4-{2-[5-(4-Fluoro-7-methylbenzofuran-2-yl)pyrrolyl]}benzoic acid] | 790
Cc1cc(C)c2cc(-c3ccc(-c4ccc(C(=O)O)cc4)[nH]3)oc2c1C [Example 113, 4-{2-[5-(4,6,7-Trimethylbenzofuran-2-yl)pyrrolyl]}benzoic acid] | 150
